One compound from US9340574B2, “Inhibitors of protein tyrosine phosphatases” (Indiana University Research and Technology Corporation, priority 2012, dated 2016) can be followed below.

Structures are written as SMILES. Where only a bound is given, the exact number is not on record here.

Assay [1] concerns the target FAP1 (Homo sapiens (Human), UniProt Q12923). As to the kind of experiment: pNPP hydrolysis enzyme assay, FAP1. The class given is biochemical. On the procedure:
(§1) Enzyme kinetic assay. PTP activity was assayed using p-nitrophenyl phosphate (pNPP) as a substrate in 3,3-dimethylglutarate buffer (50 mM 3,3-dimethylglutarate, pH 7.0, 1 mM EDTA, 150 mM NaCl, 2 mM DTT, 0.1 mg/mL BSA) at 25° C. The assays were performed in 96-well plates. Normally, to determine the IC50 values, the reaction was initiated by the addition of enzyme (final concentration at 10 nM) to a reaction mixture (0.2 mL) containing 2 mM (Km for the substrate) pNPP with various concentrations of inhibitors. The reaction rate was measured using a SpectraMax Plus 384 Microplate Spectrophotometer (Molecular Devices). To determine the mode of inhibition, the reactions were initiated by the addition of PTP-MEG2 to the reaction mixtures (0.2 mL) containing various concentrations of pNPP with different concentrations of the inhibitor 7. Data were fitted using SigmaPlot Enzyme Kinetics Module (Systat Software, Inc.).

Assay [2] concerns the target CD45 (Homo sapiens (Human), UniProt P08575). As to the kind of experiment: pNPP hydrolysis enzyme assay, CD45. The class given is biochemical. On the procedure:
as §1

Assay [3] addresses VHX (Homo sapiens (Human), UniProt Q9NRW4). The assay is described as follows: pNPP hydrolysis enzyme assay, VHX. Type of assay: biochemical. On the procedure:
as §1

Assay [4] has as its target DEP1 (Homo sapiens (Human), UniProt Q12913). As to the kind of experiment: pNPP hydrolysis enzyme assay, DEP1. The class given is biochemical. On the procedure: as §1
The target of assay [5] is Laforin (Homo sapiens (Human), UniProt O95278). The assay is described as follows: pNPP hydrolysis enzyme assay, Laforin. Type of assay: biochemical. Here is the method: as §1
In assay [6] the target is SHP1 (Homo sapiens (Human), UniProt P29350). As to the kind of experiment: pNPP hydrolysis enzyme assay, SHP1. Type of assay: biochemical. On the procedure:
as §1

Assay [7] deals with Foxo1 target genes in mouse primary hepatocytes. The assay is described as follows: Foxo1 target gene expression in mouse primary hepatocytes (real-time PCR). The class given is cell-based. Conditions: with insulin, overnight, normalized with Ppia. Here is the method:
FIGS. 4A-B depict the ability of PTP-MEG2 inhibitor Compound 7 to sensitize insulin signaling in primary hepatocytes. […] Mouse primary hepatocytes were cultured in 0.5% FBS DMEM medium overnight. Prior to insulin stimulation, the cells were pretreated with Compound 7 or 8 for 1 hour. Then the cells were stimulated with 5 nM insulin for 5 minutes. Insulin signaling was analyzed by Western Blots using phospho-specific antibodies. […] Mouse primary hepatocytes were cultured in DMEM medium plus 0.5% FBS for overnight in the presence or absence of insulin or Compound 7 or 8. Then the cells were harvested for mRNA isolation and gene expression analysis using real-time PCR. The mRNA levels of Foxo1 target genes were normalized with Ppia as an internal control. Data are presented as mean±SEM. *, P<0.05 for Compound 7 vs. DMSO; #, P<0.05 for INS+Compound 7 vs. INS alone.
RNA isolation and real-time PCR. RNA isolation was performed as described previously (Jänne, et al. Nat. Rev. Drug Discov. 2009, 8, 709-723). Real-time RT-PCR was performed in two steps: first, cDNA was synthesized using a cDNA synthesis kit (Applied Biosystems Inc.); second, cDNA was analyzed by real-time PCR using SYBR Green Master Mix (Promega). […]

In assay [8] the test system is 3T3-L1 differentiated adipocytes. The assay is described as follows: Insulin signaling in 3T3-L1 differentiated adipocytes. Type of assay: cell-based. The settings on record: 3T3-L1 adipocytes, 1 hour pretreatment before insulin. Here is the method: Cell lysate (20 μg protein) was subjected to 10% SDS-PAGE and probed with phospho-Akt, phospho-IR (Y1162/1163) or Akt antibody, respectively. […] Cell lysate (20 μg protein) was subjected to 10% SDS-PAGE and probed with phospho-IR(Y1162/1163), phospho-Akt (pS473) or total Akt antibody, respectively. […] Cell lysate (20 μg protein) or insulin receptor immunoprecipitation beads were subjected to 10% SDS-PAGE and probed with phospho-Akt, Akt, insulin receptor beta or phospho-tyrosine antibody (4G10), respectively. The non-specific band from insulin receptor immunoprecipitates served as a loading control for insulin receptor and phospho-insulin receptor.
Western blot analysis. Cells were homogenized in the lysis buffer (50 mM Hepes, pH 7.5, 150 mM NaCl, 10% Glycerol, 1% Triton X-100, 1.5 mM MgCl2, 1 mM EGTA, 10 μM Sodium Pyrophosphate, 100 mM sodium fluoride and freshly added 100 μM sodium vanadate, 1 mM PMSF, 10 μg/ml Aprotinin, and 10 μg/mL Leupeptin). Protein extracts were resolved on an SDS-PAGE gel and transferred to nitrocellulose membrane. […] Protein signals were detected by incubation with HRP-conjugated secondary antibodies, followed by ECL detection reagent (Pierce). Western blots were scanned and quantified using the Quantity One software (Bio-Rad).

The subject of assay [9] is insulin signaling in metabolic tissues of diet-induced obese mice. As to the kind of experiment: Insulin signaling in liver, skeletal muscle and white adipose tissue of diet-induced obese mice (immunoblot). Type of assay: in vivo, mouse. Conditions: skeletal muscle, white adipose tissue, 2-week injections, insulin bolus. The source says:
To investigate the underlying mechanisms responsible for the improved insulin sensitivity in Compound 7 treated diet-induced obese mice, we analyzed key insulin signaling events in metabolically active tissues. Phosphorylation of Tyr1162/1163 residues in IR was stimulated 2-3 fold higher in the liver, skeletal muscle, and white adipose tissue in Compound 7 treated mice than that in control mice (FIGS. 5G & H). […] These biochemical data are consistent with the animal phenotype that Compound 7 can effectively improve insulin sensitivity in diet-induced obese mice. Our finding that chemical inhibition of PTP-MEG2 augments insulin signaling, insulin sensitivity and glucose homeostasis in insulin resistant mice is consistent with the observation that silencing of PTP-MEG2 in the livers of db/db mice results in a reversal of insulin resistance and hyperglycemia (Cho, et al., Cell Metab. 2006, 3, 367-378). Moreover, our in vivo data also serve as proof-of-concept and support the notion that specific inhibitors of PTP-MEG2 may be effective anti-diabetes agents.

CD45, sequence (P08575 26-1306, species assumed): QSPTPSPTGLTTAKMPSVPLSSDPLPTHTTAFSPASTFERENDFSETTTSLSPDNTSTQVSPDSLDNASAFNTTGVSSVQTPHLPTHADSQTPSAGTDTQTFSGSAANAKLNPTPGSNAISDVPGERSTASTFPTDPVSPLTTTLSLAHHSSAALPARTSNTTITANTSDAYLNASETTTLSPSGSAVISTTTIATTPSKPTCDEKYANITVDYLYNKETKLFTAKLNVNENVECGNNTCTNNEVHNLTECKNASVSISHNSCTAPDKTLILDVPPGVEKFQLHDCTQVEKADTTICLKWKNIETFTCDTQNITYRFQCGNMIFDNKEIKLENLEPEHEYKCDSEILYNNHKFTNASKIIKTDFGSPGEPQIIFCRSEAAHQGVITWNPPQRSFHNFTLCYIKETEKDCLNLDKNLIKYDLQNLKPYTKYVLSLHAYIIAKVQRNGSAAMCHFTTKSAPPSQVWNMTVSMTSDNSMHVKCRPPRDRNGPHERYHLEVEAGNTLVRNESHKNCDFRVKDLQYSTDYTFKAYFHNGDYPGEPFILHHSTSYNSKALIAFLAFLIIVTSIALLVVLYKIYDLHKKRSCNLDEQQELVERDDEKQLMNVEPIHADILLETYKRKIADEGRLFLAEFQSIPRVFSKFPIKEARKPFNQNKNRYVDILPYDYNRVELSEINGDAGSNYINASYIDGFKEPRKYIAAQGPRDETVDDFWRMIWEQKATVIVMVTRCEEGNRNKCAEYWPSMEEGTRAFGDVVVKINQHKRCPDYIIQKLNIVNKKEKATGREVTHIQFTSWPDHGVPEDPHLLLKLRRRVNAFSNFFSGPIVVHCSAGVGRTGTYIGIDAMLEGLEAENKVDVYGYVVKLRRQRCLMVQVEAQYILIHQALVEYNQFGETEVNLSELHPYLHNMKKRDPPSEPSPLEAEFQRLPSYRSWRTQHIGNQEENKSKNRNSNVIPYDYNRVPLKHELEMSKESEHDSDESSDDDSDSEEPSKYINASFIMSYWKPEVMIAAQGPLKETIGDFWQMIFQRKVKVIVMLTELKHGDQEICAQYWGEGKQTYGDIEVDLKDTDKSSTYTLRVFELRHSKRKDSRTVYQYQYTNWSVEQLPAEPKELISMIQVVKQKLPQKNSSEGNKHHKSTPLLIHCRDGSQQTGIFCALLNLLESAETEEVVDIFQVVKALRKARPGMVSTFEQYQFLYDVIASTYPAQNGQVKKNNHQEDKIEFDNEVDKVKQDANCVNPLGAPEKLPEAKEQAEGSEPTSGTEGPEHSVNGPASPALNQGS
Laforin, sequence (O95278 whole entry, species assumed): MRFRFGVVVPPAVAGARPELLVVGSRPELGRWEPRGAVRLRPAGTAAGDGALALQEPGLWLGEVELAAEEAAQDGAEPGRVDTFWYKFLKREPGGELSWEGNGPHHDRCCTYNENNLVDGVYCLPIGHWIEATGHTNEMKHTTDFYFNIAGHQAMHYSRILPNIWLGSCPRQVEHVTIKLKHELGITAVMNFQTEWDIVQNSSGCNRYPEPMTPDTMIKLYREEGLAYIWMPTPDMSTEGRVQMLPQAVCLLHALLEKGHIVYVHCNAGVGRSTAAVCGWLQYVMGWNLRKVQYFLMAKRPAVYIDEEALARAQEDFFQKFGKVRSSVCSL
SHP1, sequence (P29350 whole entry): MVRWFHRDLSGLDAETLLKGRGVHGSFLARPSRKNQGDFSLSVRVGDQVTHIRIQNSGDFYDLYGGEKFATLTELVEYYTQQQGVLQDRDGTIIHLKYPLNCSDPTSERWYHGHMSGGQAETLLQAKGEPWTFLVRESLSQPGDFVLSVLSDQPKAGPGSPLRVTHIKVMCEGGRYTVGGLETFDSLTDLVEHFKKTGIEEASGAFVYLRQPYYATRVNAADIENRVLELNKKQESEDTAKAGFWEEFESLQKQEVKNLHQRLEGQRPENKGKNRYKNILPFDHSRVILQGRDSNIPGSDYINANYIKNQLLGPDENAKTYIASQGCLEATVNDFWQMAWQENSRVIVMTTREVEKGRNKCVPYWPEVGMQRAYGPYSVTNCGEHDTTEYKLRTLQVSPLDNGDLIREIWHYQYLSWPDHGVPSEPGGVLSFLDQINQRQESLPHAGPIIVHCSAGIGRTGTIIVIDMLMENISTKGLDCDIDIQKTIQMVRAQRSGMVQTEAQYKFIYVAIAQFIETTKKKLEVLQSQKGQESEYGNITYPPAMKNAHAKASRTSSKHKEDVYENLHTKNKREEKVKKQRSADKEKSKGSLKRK
DEP1, sequence (Q12913 36-1337, species assumed): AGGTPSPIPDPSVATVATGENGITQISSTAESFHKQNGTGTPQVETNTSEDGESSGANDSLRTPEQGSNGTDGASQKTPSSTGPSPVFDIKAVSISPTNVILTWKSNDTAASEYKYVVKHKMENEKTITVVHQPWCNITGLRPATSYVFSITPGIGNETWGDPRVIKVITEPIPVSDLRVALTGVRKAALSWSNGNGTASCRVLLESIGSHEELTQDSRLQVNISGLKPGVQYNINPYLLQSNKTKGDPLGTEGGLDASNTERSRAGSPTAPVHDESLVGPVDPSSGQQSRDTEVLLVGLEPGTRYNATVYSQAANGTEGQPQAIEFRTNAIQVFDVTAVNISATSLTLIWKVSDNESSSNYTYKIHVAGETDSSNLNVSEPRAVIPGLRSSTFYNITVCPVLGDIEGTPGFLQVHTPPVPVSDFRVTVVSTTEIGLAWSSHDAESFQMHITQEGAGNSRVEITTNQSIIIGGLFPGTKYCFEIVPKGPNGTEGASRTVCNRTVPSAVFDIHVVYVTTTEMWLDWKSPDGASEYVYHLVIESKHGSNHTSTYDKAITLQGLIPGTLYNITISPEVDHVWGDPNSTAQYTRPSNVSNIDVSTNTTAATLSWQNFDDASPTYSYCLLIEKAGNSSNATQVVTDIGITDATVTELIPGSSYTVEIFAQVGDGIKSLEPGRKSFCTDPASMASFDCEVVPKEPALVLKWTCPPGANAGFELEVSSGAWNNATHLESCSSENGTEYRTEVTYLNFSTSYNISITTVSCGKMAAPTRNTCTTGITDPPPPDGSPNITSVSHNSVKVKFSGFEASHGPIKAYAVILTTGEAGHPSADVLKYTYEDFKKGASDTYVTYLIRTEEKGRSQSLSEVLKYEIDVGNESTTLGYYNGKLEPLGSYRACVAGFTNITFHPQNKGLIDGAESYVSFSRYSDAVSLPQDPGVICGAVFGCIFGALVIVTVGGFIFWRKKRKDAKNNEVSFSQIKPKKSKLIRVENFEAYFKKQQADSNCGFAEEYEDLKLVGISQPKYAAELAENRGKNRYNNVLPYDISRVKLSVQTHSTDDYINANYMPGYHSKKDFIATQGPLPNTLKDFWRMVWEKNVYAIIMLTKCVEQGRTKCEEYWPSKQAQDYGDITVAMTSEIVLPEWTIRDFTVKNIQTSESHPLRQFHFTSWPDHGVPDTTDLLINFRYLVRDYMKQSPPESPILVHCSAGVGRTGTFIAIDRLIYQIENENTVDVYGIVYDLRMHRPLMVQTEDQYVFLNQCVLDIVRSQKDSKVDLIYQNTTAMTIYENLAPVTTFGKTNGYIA
VHX, sequence (Q9NRW4 whole entry): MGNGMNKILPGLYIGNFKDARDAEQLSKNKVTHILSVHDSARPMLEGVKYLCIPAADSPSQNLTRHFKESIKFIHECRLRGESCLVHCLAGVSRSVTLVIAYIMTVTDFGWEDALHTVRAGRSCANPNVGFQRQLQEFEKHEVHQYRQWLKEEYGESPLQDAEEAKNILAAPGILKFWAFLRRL

On to `COc1cc(CC(=O)NCC(NC(=O)C(CCCNC(=O)c2cccc(I)c2)NC(=O)C(Cc2ccc(C(F)(F)P(=O)(O)O)cc2)NC(=O)c2ccc(C)c(Br)c2)C(N)=O)ccc1O` (stereo not shown) [Compound 7], for which the IC50 in assay [1], in assay [2], in assay [3], in [4], in assay [5] and in [6] was > 10000 nM each time. The “Pdk4, Igfbp1, and G6pc gene expression (Foxo1 transcriptional activity)” value in [7] is “synergistic reduction”. Also, the “insulin signaling (phospho-Akt, phospho-IR)” value in assay [8] was “augmented insulin signaling”. For the same compound, the “increase of Akt (Ser473) phosphorylation” value in assay [9] is 40-60%. The “phosphorylation of Tyr1162/1163 in IR, higher than control mice” value in assay [9] is listed as 2-3 fold.
